Here are results for 77 compounds from PubChem BioAssay AID977621 (Broad Institute, 2014).

The term AC50 denotes the concentration giving half of the maximal activity seen.

The subject of this assay is E. coli wild-type GFP strain growth, fluorescence, 24 h. The assay can be described thus: growth inhibition of wild-type GFP E. coli, dose response, H69 mutant RFP, cherry-pick (AID 977621).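 Further: wild-type GFP and H69 mutant RFP strains grown together 50/50 in each well.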
The mark [1] stands for this setting: E. coli mixed culture, 24 h, measured here: total growth OD600, test 2.

Inconclusive results are not listed. Activity calls are given as the source filed them.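 How the source made its calls: active means Wild-type ribosome reporter drop at least double the humanized mutant ribosome reporter drop, growth loss under a set limit; inconclusive means no clear call, values can overlap the other calls; inactive means the rest.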 Bounds are passed on as bounds.

Take `O=C(CN1CCN(c2ccc(O)cc2)CC1)Nc1cc(S(=O)(=O)N2CCCC2)ccc1Cl`: the AC50 was > 100 µM (inactive).
Under setting [1], `CCCCc1ccc(S(=O)(=O)Nc2ccc(C)c(NS(C)(=O)=O)c2)cc1` came in with an AC50 of 49.5 µM.
Regarding `Cc1nc2ccc(Br)cc2c(=O)n1Cc1cccs1`, the AC50 is > 100 µM (inactive). Under setting [1], this compound returned an AC50 of 50.2 µM.
Turning to `O=C(Nc1ccc(S(=O)(=O)N2CCCC2)cc1)c1ccc(OCC2CCCO2)cc1` (centres undefined), the AC50 was > 100 µM (inactive).
With `COC(=O)c1sc(-c2ccc(C(C)(C)C)cc2)cc1NC(=O)c1ccccc1C(=O)O`, the AC50 under setting [1] is > 100 µM.
Consider `S=c1[nH]c2cc(Cl)ccc2s1`, for which the AC50 is > 100 µM (inactive).
Take `COc1cc(C(=O)Nc2nnc(S(=O)(=O)N3CCCCCC3)s2)cc(OC)c1OC`: the AC50 is > 100 µM (inactive). Besides, the AC50 under setting [1] is 36.3 µM.
On to `CN(Cc1c(F)cccc1Cl)C(=O)c1ccc(NS(=O)(=O)c2ccc3[nH]c(=O)[nH]c3c2)cc1`, for which the AC50 was > 100 µM (inactive).
`Cc1cc(NCc2ccccn2)n2nc(C)c(-c3ccccc3)c2n1` yielded an AC50 under setting [1] of 49.3 µM.
Consider `COc1ccccc1C1CCN(Cc2cccc([N+](=O)[O-])c2)CC1`, for which the AC50 was > 100 µM (inactive). Moreover, the AC50 under setting [1] is > 100 µM.
In the case of `CCC(=O)c1ccc(OCC(=O)Nc2nc(C)cs2)cc1`, the AC50 was > 100 µM (inactive). For the same compound, the AC50 under setting [1] is > 100 µM.
In the case of `CCC(=O)Nc1nc2ccc(NC(=O)c3cc(OC)c(OC)c(OC)c3)cc2s1`, the AC50 was > 100 µM (inactive).
As for `O=c1[nH]c(C2CCN(S(=O)(=O)c3ccc4c(c3)OCCO4)CC2)nc2c1nnn2Cc1ccccc1F`, the AC50 is > 100 µM (inactive).
For the compound `CCOC(=O)c1ccc(CC(=O)c2oc3cc(O)ccc3c2C)o1`, the AC50 is > 100 µM (inactive).
In the case of `Cc1cc(C)cc(NC(=O)c2cccc(NC(=O)c3ccco3)c2)c1`, the AC50 under setting [1] is 45.6 µM.
With `COc1cc(C(=O)NCCc2c[nH]c3ccccc23)ccc1OCc1c(C)noc1C`, the AC50 under setting [1] is > 100 µM.
As for `NC(=O)CSc1nc2cc([N+](=O)[O-])ccc2n1-c1cccc(C(F)(F)F)c1`, the AC50 is > 100 µM (inactive).
On to `Cc1ccccc1-c1cc(C(=O)NCc2cccs2)n(CC2CC(c3cccnc3)=NO2)n1` (centres undefined), for which the AC50 is > 100 µM (inactive). In addition, the AC50 under setting [1] was > 100 µM.
With `O=c1c2ccccc2nc(SCc2ccccc2)n1CC1CCCO1` (centres undefined), under setting [1], the AC50 was found to be 51.1 µM.
On the same count and under the same terms, the same measure for `COc1ccc(C(=O)NCCC2=CCCCC2)cc1[N+](=O)[O-]`: > 100 µM; for `CS(=O)(=O)N(CC(=O)N1CCc2ccccc2C1)c1cccc(Br)c1`: > 100 µM.
`COc1ccc(OC)c(C(=O)COC(=O)c2ccc([N+](=O)[O-])o2)c1`: the AC50 is > 100 µM (inactive). Moreover, the AC50 under setting [1] was > 100 µM.
On to `Cc1nc2ncnn2c(N2CCC(C(=O)NC3CCCC3)CC2)c1Cc1ccccc1`, for which the AC50 under setting [1] is > 100 µM.
For `CSc1nc(SCCN(C)C)c2c3c(sc2n1)COC(C)(C)C3`, the AC50 is > 100 µM (inactive). The AC50 under setting [1] is > 100 µM.
With `O=C(Nc1cccc(Cl)c1)N1C[C@H]2[C@@H](c3ccccc31)[C@H](CO)N2CC1CCCCC1`, the AC50 was > 100 µM (inactive).
Take `COc1ccc(N2C(=O)C3C(C2=O)C3(c2ccccc2)c2ccccc2)cc1` (centres undefined): the AC50 is > 100 µM (inactive).
For the compound `COc1ccc(N(CCC(=O)O)S(=O)(=O)c2ccc(C)cc2C)cc1`, the AC50 under setting [1] is > 100 µM.
For `CCN(c1ccc(OC)cc1)S(=O)(=O)c1cc(-c2cc(C)no2)ccc1OC`, the AC50 is > 100 µM (inactive). In addition, the AC50 under setting [1] worked out at 36.8 µM.
In the same order, the values of `O=C(CSc1ccncc1)Nc1ccc2ccccc2c1` are > 100 µM (inactive) and 30 µM.
Compound `N#Cc1nc(-c2ccco2)oc1NCc1ccccc1Cl` displayed an AC50 under setting [1] of 49.6 µM.
`COc1ccccc1Cn1c(=S)[nH]c2ccc(F)cc2c1=O`: the AC50 is > 100 µM (inactive).
For `COc1ccc(NC(=O)CN(c2ccccc2OC)S(=O)(=O)c2cccs2)cc1Cl`, the AC50 under setting [1] was > 100 µM.
As for `COc1ccccc1-c1ccc(SCc2cccc(F)c2)nn1`, the AC50 is > 100 µM (inactive). Further, the AC50 under setting [1] is 20.3 µM.
In the case of `COc1ccc(-c2nnn(CC(=O)N3CCN(c4ccccc4OC)CC3)n2)cc1OC`, the AC50 is > 100 µM (inactive).
The same measure, in the same setting: the same measure for `S=c1[nH]nc(-c2ccc(Br)cc2)n1-c1ccc2c(c1)OCCO2`: > 100 µM (inactive).
In the case of `Cc1ccc(-c2cc[n+](Cc3ccccc3)cc2)cc1`, the AC50 under setting [1] was > 100 µM.
With `COc1ccc(OCC(O)CNS(=O)(=O)c2cccc(Cl)c2)cc1` (centres undefined), under setting [1], the AC50 is > 100 µM.
On to `CC(C)Oc1ccc(C(=O)Nc2cccc3cccnc23)cc1`, for which the AC50 under setting [1] is > 100 µM.
For the compound `O=S(=O)(Cc1ccccc1)N1CCCCN2[C@@H](CO)[C@H](c3ccc(C#Cc4ccccc4)cc3)[C@@H]2C1`, the AC50 is > 100 µM (inactive).
Regarding `COC(=O)[C@H](Cc1c[nH]c2ccccc12)NCc1cccc(B(O)O)c1`, the AC50 was > 100 µM (inactive). Also, the AC50 under setting [1] is > 100 µM.
For `Cc1nc(N2CCCCC2)sc1C(=O)c1ccc(SCCO)c([N+](=O)[O-])c1`, the AC50 was > 100 µM (inactive). Further, the AC50 under setting [1] came to 34.5 µM.
As for `N#Cc1ccc(-c2ccc(C3[C@H]4CNC[C@@H]3N4S(=O)(=O)c3ccc(-c4ccccc4)cc3)cc2)cc1` (some centres undefined), the AC50 under setting [1] was > 100 µM.
For the compound `CO[C@@H]1CN(C)C(=O)c2cc(NC(=O)C3CCCC3)ccc2OC[C@@H](C)N(C(=O)Nc2ccc(C(F)(F)F)cc2)C[C@H]1C`, the AC50 was > 100 µM (inactive).
Consider `CCOc1ccc(CCNC(=O)CCn2ccc3cc(S(=O)(=O)N4CCCC4)ccc32)cc1`, for which the AC50 is > 100 µM (inactive). Under setting [1], this compound came in with a concentration at half-maximal activity (AC50) of 41.4 µM.
Take `COc1ccc(OC)c(-c2nnc3n2N=C(c2ccc(OC)c(OC4CCOC4)c2)CS3)c1` (centres undefined): the AC50 is > 100 µM (inactive). The AC50 under setting [1] was > 100 µM.
Consider `COc1ccc(C(=O)N(c2ccccc2)c2nccc3ccccc23)cc1OC`, for which the AC50 is > 100 µM (inactive).
For the compound `COc1ccc(CC(=O)Nc2nc(-c3cc(OC)ccc3OC)cs2)cc1`, the AC50 is > 100 µM (inactive). This compound had an AC50 under setting [1] of 20.9 µM.
`Cc1ccc(C)c(N2CCN(C(=O)CCS(=O)(=O)c3ccc4c(c3)oc(=O)n4C)CC2)c1`: under setting [1], the half-maximal activity concentration (AC50) is > 100 µM.
As for `O=C(O)c1ccc(S(=O)(=O)N(Cc2ccc(F)cc2)C2CCCCC2)cc1`, the AC50 was > 100 µM (inactive). Moreover, the AC50 under setting [1] came to 30.2 µM.
As for `Cc1cc(C(=O)COC(=O)CNC(=O)c2ccccc2)c(C)n1CC1CCCO1` (centres undefined), the AC50 under setting [1] was > 100 µM.
Consider `Cc1cccc(OCc2nnc(SCC(=O)Nc3ncc(C)s3)o2)c1`, for which the AC50 was > 100 µM (inactive). Besides, under setting [1], the AC50 is > 100 µM.
For the compound `Cc1cc(C)nc(SCc2cn3c(C)cccc3n2)n1`, the AC50 was > 100 µM (inactive).
For the compound `c1ccc(CN2CCN(C3CCCSc4ccccc43)CC2)cc1` (centres undefined), the AC50 is > 100 µM (inactive). Also, the AC50 under setting [1] was determined as 49.8 µM.
For `CCN(c1cccc2ccccc12)S(=O)(=O)c1ccc(Cl)nc1`, the AC50 is > 100 µM (inactive).
As for `CCCN(CC(=O)Nc1ccccc1C)C(=O)c1cccc(S(=O)(=O)N2CCc3ccccc3C2)c1`, the AC50 is > 100 µM (inactive). The AC50 under setting [1] was found to be 40.8 µM.
In the case of `CC1CCCC(NC(=O)COC(=O)Cc2c[nH]c3ccccc23)C1C` (centres undefined), under setting [1], the AC50 was > 100 µM.
`Nc1c(C(=O)NCCN2CCOCC2)c2nc3ccccc3nc2n1Cc1ccccc1`: the AC50 was > 100 µM (inactive). Besides, where the note is “measured here: total growth OD600, test 2”, the AC50 is > 100 µM.
In the case of `COc1ccc(OCC2c3cc(OC)c(OC)cc3CCN2C(=O)C(C)C)cc1` (centres undefined), the AC50 was > 100 µM (inactive).
Take `CC(C)(C)N(Cc1ccccc1)C(=O)CN1C(=O)c2ccccc2S1(=O)=O`: the AC50 was > 100 µM (inactive).
Turning to `CC1(C(=O)NS(=O)(=O)c2cccc(C#N)c2)CCN1C(=O)C1(c2ccc(Cl)cc2)CCC1` (centres undefined), the AC50 is > 100 µM (inactive). The AC50 under setting [1] is > 100 µM.
As to `COc1ccc(C(=O)C2CCCN(C(=O)c3noc4c3CCCC4)C2)cc1F` (centres undefined), the AC50 was > 100 µM (inactive).
Turning to `COC(=O)c1cc2ccccc2n1S(=O)(=O)c1ccccc1`, under setting [1], the AC50 is > 100 µM.
For the compound `CN(Cc1ccc(Cl)s1)C(=O)CNC(=O)CNC(=O)c1ccc(Cl)cc1Cl`, the AC50 is > 100 µM (inactive).
As to `Cc1c(Cc2ccccc2)sc(NC(=O)C(C)(C)C)c1C(N)=O`, the AC50 is > 100 µM (inactive). The AC50 under setting [1] came out at 50.6 µM.
As for `COC(=O)c1c(C)oc(C)c1S(=O)(=O)Nc1ccc(C(C)C)cc1`, the AC50 was > 100 µM (inactive). Further, the AC50 under setting [1] worked out at 51.5 µM.
For `CCOc1ncccc1C(=O)OCC(=O)NCCCc1ccccc1`, under setting [1], the AC50 is > 100 µM.
`Cc1ccc(N2C(=S)NC3c4cc(Cl)ccc4OC2(C)C3C(=O)N(C)C)cc1` (centres undefined): the AC50 under setting [1] was > 100 µM.
On to `COc1ccc(-c2noc(=O)n2Cc2ccccc2Cl)cc1`, for which the AC50 was > 100 µM (inactive).
Consider `O=C(Nc1ccccc1)N1CCCCN2[C@@H](CO)[C@H](c3ccc(Br)cc3)[C@@H]2C1`, for which the AC50 was > 100 µM (inactive).
For `C=CCN(c1ccccc1)S(=O)(=O)c1cccc2cccnc12`, the AC50 under setting [1] was > 100 µM.
As for `C[C@@H]1CN([C@@H](C)CO)C(=O)c2cccc(NC(=O)Nc3ccccc3)c2O[C@@H]1CN(C)S(=O)(=O)c1ccc(Cl)cc1`, the AC50 was > 100 µM (inactive). Under setting [1], this compound yielded an AC50 of 37.7 µM.
Turning to `Fc1ccc(-c2nnc(-c3ccc4ccccc4c3)o2)cc1`, the AC50 was > 100 µM (inactive). Moreover, the AC50 under setting [1] is > 100 µM.
With `COc1ccc(NS(=O)(=O)c2ccc(Oc3c(C#N)cccc3C#N)cc2)cc1`, the AC50 is > 100 µM (inactive). The compound further yielded an AC50 under setting [1] of 27.5 µM.
Turning to `O=C(c1ccco1)N(CCCN1CCOCC1)c1nc(-c2ccc(F)cc2)cs1`, the AC50 is > 100 µM (inactive).
Turning to `CSC1=NCCN1C(=O)Cc1ccc(-c2ccccc2)cc1`, the AC50 was > 100 µM (inactive). This compound gave an AC50 under setting [1] of 48.3 µM.
Take `CC(=O)c1ccc(OCC(=O)Nc2ccc3c(c2)CCC3)cc1`: the AC50 under setting [1] is > 100 µM.
The same measure, in the same setting: as for `COc1ccc(CNC(=O)CSCc2c(F)cccc2Cl)cc1`, the figure is > 100 µM.
